# Results published in patent US10710978B2, “STK4 inhibitors for treatment of hematologic malignancies” (Dana-Farber Cancer Institute, Inc., priority 2015, dated 2020).
# Like-named read-outs stand apart in the source and are kept apart here.
# Key:
# Assay in all cases: KiNativ assay
# Type in all cases: binding
# [1] = test system: KSR1, KSR2; details: H929 live cell
# Procedure: (§1) Biochemical IC50s of the compounds of the present disclosure against various kinases were measured in a KiNativ assay. Compounds were screened in duplicate at 10 μM in H929 live cell. IC50 was measured via Mass spectroscopy (MS).
# [2] = molecular target: NEK7 (Homo sapiens (Human), UniProt Q8TDX7); details: H929 live cell
# Procedure: as §1
# [3] = molecular target: CDK7 (Homo sapiens (Human), UniProt P50613); details: H929 live cell
# Procedure: as §1
# [4] = molecular target: MAP3K1 (Homo sapiens (Human), UniProt Q13233); details: H929 live cell
# Procedure: as §1
# [5] = molecular target: STLK6 (Homo sapiens (Human), UniProt Q9C0K7); details: H929 live cell
# Procedure: as §1
# [6] = test system: PI4KA, PI4KAP2; details: H929 live cell
# Procedure: as §1
# [7] = molecular target: BRAF (Homo sapiens (Human), UniProt P15056); details: H929 live cell
# Procedure: as §1
# [8] = molecular target: CK1g3 (Homo sapiens (Human), UniProt Q9Y6M4); details: H929 live cell
# Procedure: as §1
# [9] = molecular target: p70S6Kb (Homo sapiens (Human), UniProt Q9UBS0); details: H929 live cell
# Procedure: as §1
# [10] = molecular target: GCN2 domain2 (Homo sapiens (Human), UniProt Q9P2K8); details: H929 live cell
# Procedure: as §1
# [11] = molecular target: IKKa (Homo sapiens (Human), UniProt O15111); details: H929 live cell
# Procedure: as §1
# [12] = molecular target: AKT1 (Homo sapiens (Human), UniProt P31749); details: H929 live cell
# Procedure: as §1
# [13] = molecular target: MLKL (Homo sapiens (Human), UniProt Q8NB16); details: H929 live cell
# Procedure: as §1
# [14] = molecular target: RSK1 domain2 (Homo sapiens (Human), UniProt Q15418); details: H929 live cell
# Procedure: as §1
# [15] = molecular target: SLK (Homo sapiens (Human), UniProt Q9H2G2); details: H929 live cell
# Procedure: as §1
# [16] = molecular target: MAST3 (Homo sapiens (Human), UniProt O60307); details: H929 live cell
# Procedure: as §1
# [17] = molecular target: MSK2 domain1 (Homo sapiens (Human), UniProt O75676); details: H929 live cell
# Procedure: as §1
# [18] = molecular target: MAP2K1 (Homo sapiens (Human), UniProt Q02750); details: H929 live cell
# Procedure: as §1
# [19] = molecular target: p38a (Homo sapiens (Human), UniProt Q16539); details: H929 live cell, read-out: % inhibition (range)
# Procedure: as §1
# [20] = molecular target: MAP3K2 (Homo sapiens (Human), UniProt Q9Y2U5); details: H929 live cell
# Procedure: as §1
# [21] = test system: AMPKa1, AMPKa2; details: H929 live cell
# Procedure: as §1
# [22] = molecular target: NuaK2 (Homo sapiens (Human), UniProt Q9H093); details: H929 live cell
# Procedure: as §1
# [23] = molecular target: PKR (Homo sapiens (Human), UniProt P19525); details: H929 live cell
# Procedure: as §1
# [24] = molecular target: IRAK4 (Homo sapiens (Human), UniProt Q9NWZ3); details: H929 live cell
# Procedure: as §1
# [25] = molecular target: MST2 (Homo sapiens (Human), UniProt Q13188); details: H929 live cell
# Procedure: as §1
# [26] = test system: ABL, ARG; details: H929 live cell
# Procedure: as §1
# [27] = molecular target: PAN3 (Homo sapiens (Human), UniProt Q58A45); details: H929 live cell
# Procedure: as §1
# [28] = molecular target: LYN (Homo sapiens (Human), UniProt P07948); details: H929 live cell
# Procedure: as §1
# [29] = test system: CDK11, CDK8; details: H929 live cell
# Procedure: as §1
# [30] = molecular target: AurB (Homo sapiens (Human), UniProt Q96GD4); details: H929 live cell
# Procedure: as §1
# [31] = test system: MAP2K1, MAP2K2; details: 10 μM, H929 live cell
# Procedure: as §1
# [32] = molecular target: PKD2 (Homo sapiens (Human), UniProt Q9BZL6); details: H929 live cell
# Procedure: as §1
# [33] = molecular target: MLK3 (Homo sapiens (Human), UniProt Q16584); details: H929 live cell
# Procedure: as §1
# [34] = molecular target: PKCi (Homo sapiens (Human), UniProt P41743); details: H929 live cell
# Procedure: as §1
# p70S6Kb, sequence (Q9UBS0 whole entry): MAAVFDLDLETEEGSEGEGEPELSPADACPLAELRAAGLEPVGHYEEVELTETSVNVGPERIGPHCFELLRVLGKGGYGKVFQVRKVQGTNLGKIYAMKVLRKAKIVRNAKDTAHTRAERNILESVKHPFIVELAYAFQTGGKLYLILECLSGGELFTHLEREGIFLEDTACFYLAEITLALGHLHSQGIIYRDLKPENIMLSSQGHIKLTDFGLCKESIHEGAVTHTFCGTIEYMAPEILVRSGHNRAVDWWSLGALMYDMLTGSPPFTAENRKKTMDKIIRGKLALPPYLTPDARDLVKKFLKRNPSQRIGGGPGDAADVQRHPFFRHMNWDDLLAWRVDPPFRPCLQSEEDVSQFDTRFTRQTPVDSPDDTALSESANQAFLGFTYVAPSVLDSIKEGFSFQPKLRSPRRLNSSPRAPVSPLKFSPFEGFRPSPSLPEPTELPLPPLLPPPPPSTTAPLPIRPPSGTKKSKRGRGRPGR
# PKCi, sequence (P41743 whole entry): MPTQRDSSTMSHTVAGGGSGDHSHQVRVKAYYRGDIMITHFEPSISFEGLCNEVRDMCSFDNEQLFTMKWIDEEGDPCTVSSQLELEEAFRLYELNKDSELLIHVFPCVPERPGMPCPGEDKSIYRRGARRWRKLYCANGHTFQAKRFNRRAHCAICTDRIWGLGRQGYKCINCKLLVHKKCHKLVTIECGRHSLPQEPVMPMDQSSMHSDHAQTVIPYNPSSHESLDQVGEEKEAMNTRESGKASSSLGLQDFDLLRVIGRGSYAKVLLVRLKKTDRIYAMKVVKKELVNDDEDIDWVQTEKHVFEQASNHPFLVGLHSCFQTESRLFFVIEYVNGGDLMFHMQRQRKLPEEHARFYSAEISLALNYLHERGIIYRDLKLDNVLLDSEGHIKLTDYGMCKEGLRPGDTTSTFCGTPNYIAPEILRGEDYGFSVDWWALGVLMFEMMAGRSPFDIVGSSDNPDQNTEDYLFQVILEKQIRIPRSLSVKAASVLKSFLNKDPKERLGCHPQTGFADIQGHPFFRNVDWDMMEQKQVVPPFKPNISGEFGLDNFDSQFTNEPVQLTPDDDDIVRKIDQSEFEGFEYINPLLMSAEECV
# BRAF, sequence (P15056 whole entry): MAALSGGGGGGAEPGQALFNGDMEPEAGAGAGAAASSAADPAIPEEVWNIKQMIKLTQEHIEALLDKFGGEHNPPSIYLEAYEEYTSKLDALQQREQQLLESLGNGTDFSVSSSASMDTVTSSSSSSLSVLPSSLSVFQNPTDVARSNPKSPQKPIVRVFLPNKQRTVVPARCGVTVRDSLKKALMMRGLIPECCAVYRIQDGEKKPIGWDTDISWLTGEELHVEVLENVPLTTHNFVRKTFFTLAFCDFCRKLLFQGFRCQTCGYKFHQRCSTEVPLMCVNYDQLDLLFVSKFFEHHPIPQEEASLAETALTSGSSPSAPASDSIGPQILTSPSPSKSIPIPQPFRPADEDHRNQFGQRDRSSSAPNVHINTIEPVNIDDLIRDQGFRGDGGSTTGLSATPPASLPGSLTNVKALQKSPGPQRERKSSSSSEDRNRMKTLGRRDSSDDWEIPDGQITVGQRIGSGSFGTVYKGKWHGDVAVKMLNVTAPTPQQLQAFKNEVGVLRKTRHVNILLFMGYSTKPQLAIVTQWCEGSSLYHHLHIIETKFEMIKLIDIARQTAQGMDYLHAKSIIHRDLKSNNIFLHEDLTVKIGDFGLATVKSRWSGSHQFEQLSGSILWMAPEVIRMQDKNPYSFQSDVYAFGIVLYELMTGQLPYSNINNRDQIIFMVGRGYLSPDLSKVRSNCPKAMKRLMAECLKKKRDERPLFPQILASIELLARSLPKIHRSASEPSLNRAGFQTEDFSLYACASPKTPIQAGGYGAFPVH
# MAST3, sequence (O60307 whole entry): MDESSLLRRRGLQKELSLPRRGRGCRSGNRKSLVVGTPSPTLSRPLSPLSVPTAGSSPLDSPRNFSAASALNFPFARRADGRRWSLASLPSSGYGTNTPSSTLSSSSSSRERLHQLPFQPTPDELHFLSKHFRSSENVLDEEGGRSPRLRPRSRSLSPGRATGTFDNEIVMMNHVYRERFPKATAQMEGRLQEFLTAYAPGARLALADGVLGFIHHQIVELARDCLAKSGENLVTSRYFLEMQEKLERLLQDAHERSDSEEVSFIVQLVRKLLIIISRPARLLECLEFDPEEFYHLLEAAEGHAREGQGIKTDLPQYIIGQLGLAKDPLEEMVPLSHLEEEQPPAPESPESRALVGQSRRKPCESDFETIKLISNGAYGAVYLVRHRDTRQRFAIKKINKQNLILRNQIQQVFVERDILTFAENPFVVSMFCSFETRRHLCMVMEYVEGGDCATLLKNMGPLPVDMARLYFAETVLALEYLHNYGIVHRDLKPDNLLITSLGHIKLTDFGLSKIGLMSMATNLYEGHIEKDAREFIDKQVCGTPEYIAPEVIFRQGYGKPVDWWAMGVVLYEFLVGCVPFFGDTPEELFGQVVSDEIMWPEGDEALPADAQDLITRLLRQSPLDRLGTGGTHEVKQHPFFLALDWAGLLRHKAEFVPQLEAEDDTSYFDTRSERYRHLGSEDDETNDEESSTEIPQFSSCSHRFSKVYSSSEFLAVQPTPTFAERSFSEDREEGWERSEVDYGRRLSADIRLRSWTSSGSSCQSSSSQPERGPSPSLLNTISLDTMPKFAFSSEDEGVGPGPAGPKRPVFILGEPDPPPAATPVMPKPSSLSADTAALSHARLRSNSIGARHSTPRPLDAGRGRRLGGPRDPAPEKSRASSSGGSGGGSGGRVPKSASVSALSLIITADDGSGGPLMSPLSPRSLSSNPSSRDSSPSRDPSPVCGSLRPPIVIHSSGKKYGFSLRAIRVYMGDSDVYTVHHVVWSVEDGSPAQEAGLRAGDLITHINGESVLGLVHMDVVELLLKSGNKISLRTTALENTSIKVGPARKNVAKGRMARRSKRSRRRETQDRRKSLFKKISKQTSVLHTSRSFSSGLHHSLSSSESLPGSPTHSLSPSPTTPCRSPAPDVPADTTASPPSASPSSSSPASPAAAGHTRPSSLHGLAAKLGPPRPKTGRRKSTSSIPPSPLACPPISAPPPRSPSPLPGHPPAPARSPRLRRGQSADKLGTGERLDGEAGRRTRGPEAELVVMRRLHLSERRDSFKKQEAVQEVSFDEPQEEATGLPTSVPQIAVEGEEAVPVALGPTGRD
# MLKL, sequence (Q8NB16 whole entry): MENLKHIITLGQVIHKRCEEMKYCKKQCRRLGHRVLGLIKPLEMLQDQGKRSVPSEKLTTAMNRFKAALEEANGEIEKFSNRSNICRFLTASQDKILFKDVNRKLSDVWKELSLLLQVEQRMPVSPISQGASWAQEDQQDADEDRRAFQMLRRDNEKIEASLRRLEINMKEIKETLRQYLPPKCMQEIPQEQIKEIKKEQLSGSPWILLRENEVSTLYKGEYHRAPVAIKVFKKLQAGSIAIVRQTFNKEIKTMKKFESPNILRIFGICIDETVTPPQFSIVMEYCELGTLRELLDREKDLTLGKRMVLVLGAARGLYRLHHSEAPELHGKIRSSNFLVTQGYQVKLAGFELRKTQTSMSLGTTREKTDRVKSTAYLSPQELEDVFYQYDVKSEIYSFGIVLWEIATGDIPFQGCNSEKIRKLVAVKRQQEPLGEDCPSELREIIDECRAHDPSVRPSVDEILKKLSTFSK
# MLK3, sequence (Q16584 whole entry): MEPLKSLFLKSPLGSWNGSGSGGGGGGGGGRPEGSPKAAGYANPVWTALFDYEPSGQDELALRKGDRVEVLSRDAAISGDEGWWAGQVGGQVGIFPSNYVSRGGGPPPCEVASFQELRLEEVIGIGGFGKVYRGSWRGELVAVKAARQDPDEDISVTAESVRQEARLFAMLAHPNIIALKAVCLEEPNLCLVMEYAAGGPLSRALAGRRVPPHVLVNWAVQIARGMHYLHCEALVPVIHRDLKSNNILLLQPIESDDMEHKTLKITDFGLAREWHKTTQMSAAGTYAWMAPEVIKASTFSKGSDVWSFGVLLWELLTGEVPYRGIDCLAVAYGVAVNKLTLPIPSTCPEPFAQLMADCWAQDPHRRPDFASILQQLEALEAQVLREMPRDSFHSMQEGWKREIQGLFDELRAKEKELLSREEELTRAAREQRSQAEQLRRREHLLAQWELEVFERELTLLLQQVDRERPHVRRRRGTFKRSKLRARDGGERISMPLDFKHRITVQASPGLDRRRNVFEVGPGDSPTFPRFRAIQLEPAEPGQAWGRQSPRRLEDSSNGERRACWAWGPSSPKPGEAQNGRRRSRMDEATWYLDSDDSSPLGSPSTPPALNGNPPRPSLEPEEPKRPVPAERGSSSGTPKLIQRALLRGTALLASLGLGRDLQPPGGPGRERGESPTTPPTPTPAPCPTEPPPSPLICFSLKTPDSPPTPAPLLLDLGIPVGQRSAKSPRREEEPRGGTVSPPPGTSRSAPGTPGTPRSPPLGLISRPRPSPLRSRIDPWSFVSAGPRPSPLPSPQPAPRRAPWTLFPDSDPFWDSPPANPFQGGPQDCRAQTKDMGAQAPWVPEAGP
# AurB, sequence (Q96GD4 whole entry): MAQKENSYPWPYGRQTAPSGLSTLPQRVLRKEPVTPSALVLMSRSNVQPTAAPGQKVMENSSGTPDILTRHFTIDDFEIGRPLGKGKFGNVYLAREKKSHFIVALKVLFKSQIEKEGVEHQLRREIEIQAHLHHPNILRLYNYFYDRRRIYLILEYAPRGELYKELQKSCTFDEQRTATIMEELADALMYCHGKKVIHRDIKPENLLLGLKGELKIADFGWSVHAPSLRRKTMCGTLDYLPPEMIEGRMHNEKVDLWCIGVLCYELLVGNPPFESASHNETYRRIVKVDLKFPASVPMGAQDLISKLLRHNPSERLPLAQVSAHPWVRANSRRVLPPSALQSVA
smiles,measurement,setting,value
"Nc1ncc(-c2cccc3ncsc23)cc1-c1ccc2c(c1)CCNC2=O [Compound I-13, 6-(2-amino-5-(benzo[d]thiazol-7-yl)pyridin-3-yl)-3,4-dihydroisoquinolin-1(2H)-one]",% inhibition (range),[1]; 10 μM,0.0%
same,inhibition (10 μM),[1],−6.2%
same,inhibition at 10 µM,[2]; read-out: % inhibition (range),0%
same,inhibition at 10 µM,[2]; read-out: inhibition (10 μM),-20.2%
same,inhibition at 10 µM,[3]; read-out: % inhibition (range),0%
same,inhibition at 10 µM,[3]; read-out: inhibition (10 μM),32.9%
same,inhibition at 10 µM,[4]; read-out: % inhibition (range),> 90%
same,inhibition at 10 µM,[4]; read-out: inhibition (10 μM),90.2%
same,inhibition at 10 µM,[5]; read-out: % inhibition (range),0%
same,inhibition at 10 µM,[5]; read-out: inhibition (10 μM),-10.8%
same,% inhibition (range),[6]; 10 μM,0.0%
same,inhibition (10 μM),[6],−16.1%
same,inhibition at 10 µM,[7]; read-out: % inhibition (range),0%
same,inhibition at 10 µM,[7]; read-out: inhibition (10 μM),10.2%
same,inhibition at 10 µM,[8]; read-out: % inhibition (range),> 90%
same,inhibition at 10 µM,[8]; read-out: inhibition (10 μM),90.4%
same,inhibition at 10 µM,[9]; read-out: % inhibition (range),0%
same,inhibition at 10 µM,[9]; read-out: inhibition (10 μM),-17.4%
same,inhibition at 10 µM,[10]; read-out: % inhibition (range),0%
same,inhibition at 10 µM,[10]; read-out: inhibition (10 μM),13.5%
same,inhibition at 10 µM,[11]; read-out: % inhibition (range),0%
same,inhibition at 10 µM,[11]; read-out: inhibition (10 μM),2.6%
same,inhibition at 10 µM,[12]; read-out: % inhibition (range),0%
same,inhibition at 10 µM,[12]; read-out: inhibition (10 μM),26.4%
same,inhibition at 10 µM,[13]; read-out: % inhibition (range),0%
same,inhibition at 10 µM,[13]; read-out: inhibition (10 μM),15.2%
same,inhibition at 10 µM,[14]; read-out: % inhibition (range),0%
same,inhibition at 10 µM,[14]; read-out: inhibition (10 μM),-7.7%
same,inhibition at 10 µM,[15]; read-out: % inhibition (range),35 to 50%
same,inhibition at 10 µM,[15]; read-out: inhibition (10 μM),49.2%
same,inhibition at 10 µM,[16]; read-out: % inhibition (range),0%
same,inhibition at 10 µM,[16]; read-out: inhibition (10 μM),22%
same,inhibition at 10 µM,[17]; read-out: % inhibition (range),0%
same,inhibition at 10 µM,[17]; read-out: inhibition (10 μM),-6.1%
same,inhibition at 10 µM,[18]; read-out: % inhibition (range),0%
same,inhibition at 10 µM,[18]; read-out: inhibition (10 μM),-27.4%
same,inhibition at 10 µM,[19],0%
same,inhibition at 10 µM,[20]; read-out: % inhibition (range),0%
same,inhibition at 10 µM,[20]; read-out: inhibition (10 μM),-23.5%
same,% inhibition (range),[21]; 10 μM,0.0%
same,inhibition (10 μM),[21],1.8%
same,inhibition at 10 µM,[22]; read-out: % inhibition (range),50 to 75%
same,inhibition at 10 µM,[22]; read-out: inhibition (10 μM),53.9%
same,inhibition at 10 µM,[23]; read-out: % inhibition (range),0%
same,inhibition at 10 µM,[23]; read-out: inhibition (10 μM),-21.7%
same,inhibition at 10 µM,[24]; read-out: % inhibition (range),0%
same,inhibition at 10 µM,[24]; read-out: inhibition (10 μM),-6.4%
same,inhibition at 10 µM,[25]; read-out: % inhibition (range),75 to 90%
same,inhibition at 10 µM,[25]; read-out: inhibition (10 μM),85.5%
same,% inhibition (range),[26]; 10 μM,50-75%
same,inhibition (10 μM),[26],53.5%
same,inhibition at 10 µM,[27]; read-out: % inhibition (range),0%
same,inhibition at 10 µM,[27]; read-out: inhibition (10 μM),-4%
same,inhibition at 10 µM,[28]; read-out: % inhibition (range),0%
same,inhibition at 10 µM,[28]; read-out: inhibition (10 μM),-41.4%
same,% inhibition (range),[29]; 10 μM,50-75%
same,inhibition (10 μM),[29],59.3%
same,inhibition at 10 µM,[30]; read-out: % inhibition (range),0%
same,inhibition at 10 µM,[30]; read-out: inhibition (10 μM),20.7%
same,% inhibition (range),[31],0.0%
same,inhibition at 10 µM,[32]; read-out: % inhibition (range),50 to 75%
same,inhibition at 10 µM,[32]; read-out: inhibition (10 μM),52.1%
same,inhibition at 10 µM,[33]; read-out: % inhibition (range),0%
same,inhibition at 10 µM,[33]; read-out: inhibition (10 μM),-3.9%
same,inhibition at 10 µM,[34]; read-out: % inhibition (range),0%
same,inhibition at 10 µM,[34]; read-out: inhibition (10 μM),21.4%
